Experimental data: patent EP1282414B1, “FELBAMATE DERIVED COMPOUNDS FOR TREATING NEUROPATHIC PAIN” (University of Virginia Patent Foundation, priority 2000, dated 2001)
Values belong to the compound of their own block, whether it stands above or below them.

Key:
[1] = LC/MS quantification of felbamate and metabolites in patient urine; assay type: in vivo, patients
Method: Preparation of Patient Urine Samples. Urine samples were obtained from patient volunteers undergoing felbamate therapy for control of epileptic seizures and under the care of physicians at either the University of Virginia (Charlottesville, Virginia) or the EpiCare Center (Memphis, Tennessee). Urine samples were diluted four fold with distilled water (this was done prior to overnight shipment for samples requiring shipping) and placed in an orbital shaking water bath for ∼ 20 min at 37 °C to insure that all of the analytes were in solution. 500 µL of this diluted sample were removed and added to 100 µL of a mixture of the four deuterated internal standards. […] After mixing, 200 µL were removed and added to 20 µL of 20% H0Ac. This acidified sample was then applied to a preconditioned Waters "Oasis" solid phase extraction cartridge (Waters Corp., Woburn, MA). The cartridge was washed with 2 mL 0.1% HOAc followed by 3 mL 10% CH3CN/90% water (0.1 %) H0Ac. The analytes and internal standards were then eluted with 3 mL 30% CH3CN:70% (0.1 %) HOAc. This fraction was then analyzed by LC/MS without further manipulation.
LC/MS Analysis of Urine Samples for Metabolite Quantification. LC/MS analysis was performed using a Waters 2690 HPLC equipped with an autosampler and a Waters 486 tunable absorbance detector. This LC system was interfaced to a Finnigan MAT LCQ ion trap mass spectrometer. A 10 µL injection of the fraction from solid phase extraction was applied to a Waters Symmetry C8 reversed phase column (33% CH3CN:67% (0.1%) H0Ac, 2.1 mm x 150 mm, 0.2 mL/min). The post-column flow was directed through a Waters 486 tunable absorbance detector (10 µL flow cell, λ = 214 nm) which was used for qualitative assessment of the sample and not for quantitation. The flow was then directed to the electrospray ionization source of the LCQ.
The mass spectrometer was programmed to collect data in full scan mode from 190 - 320 m/z and was tuned to maximize the signal from the analytes under the HPLC conditions. The values for the electrospray parameters were as follows: heated capillary temperature = 180°C; spray voltage = 5.6 kV; capillary voltage = 20 V; sheath gas (nitrogen) flow rate = 70; auxillary gas (helium) flow rate = 20. The automatic gain control (AGC) was on with a target ion count of 7 x 10^7 ions and a maximum ion inject time of 150 ms. […]
Quantification was achieved by integration of the peaks from the mass chromatogram for each analyte using software (Navigator 1.1) provided with the LCQ. The area (expressed as counts x seconds) of the peak for each metabolite was compared to the area for its corresponding deuterated internal standard. As the absolute amount of internal standard added per mL of urine was known, the absolute amount of analyte per mL of urine could be determined.

[2] = Stability of oxazinane-dione at relevant pH; assay type: physicochemical
Source text: It is anticipated, therefore, that the oxazinane-dione 9 is responsible for some aspects of felbamate's efficacy in vivo. As patients undergoing felbamate therapy for seizure control ingest large quantities of felbamate (grams per day), even a 1 - 2% conversion to a pharmacologically active metabolite could have significant effects. […] In light of the possibility that the oxazinane-dione 9 could be a metabolic precursor to the major human metabolite, acid carbamate 4, it may be formed in significant quantities (the acid carbamate was reported to represent ∼ 12% of a dose). […] Also included in this class are cyclic congeners 21 and 22, which may be formed from felbamate derivatives (see scheme II). Also included is 20, which may be an unknown metabolite of felbamate 1 and could be produced from felbamate derivative 12 by the cytochrome P450 metabolism.

[3] = patients on felbamate monotherapy; cited from earlier work
[4] = tested on: painful peripheral neuropathy; conditions: rat model of painful peripheral neuropathy; cited from earlier work
[5] = urine of patients on felbamate therapy, 34 samples

- average ratio of Nac-alcohol to Nac-acid [1, 5]: 6.4
- ratio of Nac-alcohol to Nac-acid (range over patients) [1, 5]: 2- 14
Compound: CC(=O)N[C@@H](CSCC(CO)c1ccccc1)C(=O)O (stereo partly shown) [Nac-alcohol]

- stability at relevant pH (in words) [2]: unstable
Compound: O=C1NC(=O)C(c2ccccc2)CO1 (stereo not shown) [oxazinane-dione 9]

- amount of felbamate excreted per mL of urine ([1]; patient with total daily dose of 3.6 grams of felbamate (lowest of range)): 819 ± 8.5 nmol/mL
- amount of felbamate excreted per mL of urine ([1]; patient with total daily dose of 6.0 grams of felbamate (highest of range)): 10,064 ± 515 nMoles/mL
Compound: NC(=O)OCC(COC(N)=O)c1ccccc1 [felbamate, 2-phenyl-1,3-propanediol dicarbamate]
- Weight loss [3]: 4-5%
- effect on measures of pain (in words) [4]: significant reductions in all measures of pain
